Earlier results, collected in patent US8679052B2, “Method for accurately determining concentrations of diffusible materials” (priority 2009, dated 2014).

Tested on: red blood cells
Conditions: red blood cells suspended in buffer; in the first 1-2 minutes

SMILES: CC(=O)/N=c1/sc(S(N)(=O)=O)nn1C [methazolamide]
- decrease of buffer concentration (uptake by red blood cells): 50%
